Experimental data from the supplement of paper PMC11451515.

Columns and labels:
Details in all cases: 48 h
[1] = tested on: NOMO1; assay: cell viability relative to DMSO control; higher = less cytotoxic
Procedure, shortened: (§1)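 Viability is a per-plate percentage relative to DMSO wells, with cell-free wells as background. CellTiter-Glo One luminescence was read after 48 h at 37°C on 1536-well plates (5 μl) of NOMO1 or SEM (500 cells/well) or P12-Ichikawa (1000 cells/well) leukemia cells. The cells had been adapted for at least four passages in each medium and pin-dosed with library compounds in DMSO from 47 μM to 0.79 nM in 11 threefold steps.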

[2] = tested on: P12-Ichikawa; assay: as above
Procedure, shortened: as §1

[3] = tested on: SEM cells; assay: as above
Procedure, shortened: as §1

[4] = tested on: NOMO1; assay: AUC of viability dose-response curve (% viability x log10 dose units); higher = less sensitive
Procedure, shortened: (§2)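 Seeding of medium-adapted leukemia cells was at 500 or 1000 cells/well in 1536-well plates, followed by 48 h at 37°C with library compounds in DMSO at 11 threefold doses from 47 μM to 0.79 nM. CellTiter-Glo One luminescence was normalised per plate to DMSO and cell-free wells and fitted as a four-parameter log-logistic function of log10 dose. Area under the curve was integrated by trapezoidal rule, with curves exceeding full viability scaled and curves failing quality control removed.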

[5] = tested on: P12-Ichikawa; assay: as above
Procedure, shortened: as §2

[6] = tested on: SEM cells; assay: as above
Procedure, shortened: as §2

CC/1=C/C(=O)N(O)/C(=C1)C2CCCCC2
cell viability [%]
Details	[1]	[2]	[3]
HPLM + 10% dialyzed FBS, 0.000781 µM	110	115	82.9
HPLM + 10% dialyzed FBS, 0.00234 µM	117	118	89.7
HPLM + 10% dialyzed FBS, 0.00702 µM	135	123	119
HPLM + 10% dialyzed FBS, 0.0211 µM	146	132	111
HPLM + 10% dialyzed FBS, 0.0632 µM	143	130	116
HPLM + 10% dialyzed FBS, 0.19 µM	145	125	106
HPLM + 10% dialyzed FBS, 0.569 µM	140	121	126
HPLM + 10% dialyzed FBS, 1.71 µM	136	127	126
HPLM + 10% dialyzed FBS, 5.12 µM	139	113	117
HPLM + 10% dialyzed FBS, 15.4 µM	79	74.8	50.8
HPLM + 10% dialyzed FBS, 46.1 µM	39.8	28.5	12.6
RPMI 5 mM glucose + 10% FBS, 0.000781 µM	–	–	113
RPMI 5 mM glucose + 10% FBS, 0.00234 µM	–	–	111
RPMI 5 mM glucose + 10% FBS, 0.00702 µM	–	–	135
RPMI 5 mM glucose + 10% FBS, 0.0211 µM	–	–	124
RPMI 5 mM glucose + 10% FBS, 0.0632 µM	–	–	129
RPMI 5 mM glucose + 10% FBS, 0.19 µM	–	–	143
RPMI 5 mM glucose + 10% FBS, 0.569 µM	–	–	140
RPMI 5 mM glucose + 10% FBS, 1.71 µM	–	–	147
RPMI 5 mM glucose + 10% FBS, 5.12 µM	–	–	101
RPMI 5 mM glucose + 10% FBS, 15.4 µM	–	–	55.3
RPMI 5 mM glucose + 10% FBS, 46.1 µM	–	–	14.2
RPMI 5 mM glucose + 10% dialyzed FBS, 0.000781 µM	–	–	92.9
RPMI 5 mM glucose + 10% dialyzed FBS, 0.00234 µM	–	–	94.4
RPMI 5 mM glucose + 10% dialyzed FBS, 0.00702 µM	–	–	126
RPMI 5 mM glucose + 10% dialyzed FBS, 0.0211 µM	–	–	117
RPMI 5 mM glucose + 10% dialyzed FBS, 0.0632 µM	–	–	122
RPMI 5 mM glucose + 10% dialyzed FBS, 0.19 µM	–	–	147
RPMI 5 mM glucose + 10% dialyzed FBS, 0.569 µM	–	–	140
RPMI 5 mM glucose + 10% dialyzed FBS, 1.71 µM	–	–	144
RPMI 5 mM glucose + 10% dialyzed FBS, 5.12 µM	–	–	113
RPMI 5 mM glucose + 10% dialyzed FBS, 15.4 µM	–	–	56.4
RPMI 5 mM glucose + 10% dialyzed FBS, 46.1 µM	–	–	14.4

AUC of viability dose-response curve
Details	[4]	[5]	[6]
HPLM + 10% dialyzed FBS	441	435	430
RPMI 5 mM glucose + 10% FBS	445	415	419
RPMI 5 mM glucose + 10% dialyzed FBS	446	430	427

C=CC(=O)Nc1cccc(Oc2nc(Nc3ccc(N4CCN(C)CC4)cc3)ncc2Cl)c1
cell viability [%]
Details	[1]	[2]	[3]
HPLM + 10% dialyzed FBS, 0.000781 µM	93.3	109	94.3
HPLM + 10% dialyzed FBS, 0.00234 µM	110	123	112
HPLM + 10% dialyzed FBS, 0.00702 µM	119	123	109
HPLM + 10% dialyzed FBS, 0.0211 µM	125	122	116
HPLM + 10% dialyzed FBS, 0.0632 µM	131	131	128
HPLM + 10% dialyzed FBS, 0.19 µM	112	130	111
HPLM + 10% dialyzed FBS, 0.569 µM	106	122	104
HPLM + 10% dialyzed FBS, 1.71 µM	97.2	113	83
HPLM + 10% dialyzed FBS, 5.12 µM	88.3	102	22.1
HPLM + 10% dialyzed FBS, 15.4 µM	84.9	22.4	21.6
HPLM + 10% dialyzed FBS, 46.1 µM	135	52.5	22.2
RPMI 5 mM glucose + 10% dialyzed FBS, 0.000781 µM	–	–	108
RPMI 5 mM glucose + 10% dialyzed FBS, 0.00234 µM	–	–	107
RPMI 5 mM glucose + 10% dialyzed FBS, 0.00702 µM	–	–	125
RPMI 5 mM glucose + 10% dialyzed FBS, 0.0211 µM	–	–	124
RPMI 5 mM glucose + 10% dialyzed FBS, 0.0632 µM	–	–	128
RPMI 5 mM glucose + 10% dialyzed FBS, 0.19 µM	–	–	111
RPMI 5 mM glucose + 10% dialyzed FBS, 0.569 µM	–	–	103
RPMI 5 mM glucose + 10% dialyzed FBS, 1.71 µM	–	–	71.8
RPMI 5 mM glucose + 10% dialyzed FBS, 5.12 µM	–	–	21.1
RPMI 5 mM glucose + 10% dialyzed FBS, 15.4 µM	–	–	15
RPMI 5 mM glucose + 10% dialyzed FBS, 46.1 µM	–	–	10.4

AUC of viability dose-response curve
Details	[4]	[5]	[6]
HPLM + 10% dialyzed FBS	465	420	369
RPMI 5 mM glucose + 10% FBS	454	392	303
RPMI 5 mM glucose + 10% dialyzed FBS	459	421	351

C[C@]\12CC[C@H](O)CC1=C/CC3C2CC[C@@]\4(C)C3C\C=C4[N]5C=NC6=C5C=CC=C6 (stereo not given in full)
cell viability [%]
Details	[1]	[2]	[3]
HPLM + 10% dialyzed FBS, 0.000781 µM	95.5	94.2	90.4
HPLM + 10% dialyzed FBS, 0.00234 µM	110	95.5	82.4
HPLM + 10% dialyzed FBS, 0.00702 µM	99.5	102	99.7
HPLM + 10% dialyzed FBS, 0.0211 µM	96.7	106	103
HPLM + 10% dialyzed FBS, 0.0632 µM	105	103	61.4
HPLM + 10% dialyzed FBS, 0.19 µM	115	105	97.7
HPLM + 10% dialyzed FBS, 0.569 µM	117	105	109
HPLM + 10% dialyzed FBS, 1.71 µM	102	104	115
HPLM + 10% dialyzed FBS, 5.12 µM	97	107	109
HPLM + 10% dialyzed FBS, 15.4 µM	116	106	114
HPLM + 10% dialyzed FBS, 46.1 µM	110	107	101
RPMI 5 mM glucose + 10% FBS, 0.000781 µM	96.4	82.9	96.1
RPMI 5 mM glucose + 10% FBS, 0.00234 µM	99	94.2	93.3
RPMI 5 mM glucose + 10% FBS, 0.00702 µM	100	93.8	101
RPMI 5 mM glucose + 10% FBS, 0.0211 µM	103	112	121
RPMI 5 mM glucose + 10% FBS, 0.0632 µM	112	107	96.6
RPMI 5 mM glucose + 10% FBS, 0.19 µM	109	106	97
RPMI 5 mM glucose + 10% FBS, 0.569 µM	117	105	109
RPMI 5 mM glucose + 10% FBS, 1.71 µM	101	105	115
RPMI 5 mM glucose + 10% FBS, 5.12 µM	99.2	102	117
RPMI 5 mM glucose + 10% FBS, 15.4 µM	125	99.5	113
RPMI 5 mM glucose + 10% FBS, 46.1 µM	100	98.5	104
RPMI 5 mM glucose + 10% dialyzed FBS, 0.000781 µM	84.8	89.6	99.8
RPMI 5 mM glucose + 10% dialyzed FBS, 0.00234 µM	101	97.4	88.9
RPMI 5 mM glucose + 10% dialyzed FBS, 0.00702 µM	97.3	103	106
RPMI 5 mM glucose + 10% dialyzed FBS, 0.0211 µM	124	108	115
RPMI 5 mM glucose + 10% dialyzed FBS, 0.0632 µM	110	103	102
RPMI 5 mM glucose + 10% dialyzed FBS, 0.19 µM	122	102	103
RPMI 5 mM glucose + 10% dialyzed FBS, 0.569 µM	117	103	108
RPMI 5 mM glucose + 10% dialyzed FBS, 1.71 µM	113	100	119
RPMI 5 mM glucose + 10% dialyzed FBS, 5.12 µM	104	107	109
RPMI 5 mM glucose + 10% dialyzed FBS, 15.4 µM	105	104	109
RPMI 5 mM glucose + 10% dialyzed FBS, 46.1 µM	112	102	112

AUC of viability dose-response curve
Details	[4]	[5]	[6]
HPLM + 10% dialyzed FBS	461	469	428
RPMI 5 mM glucose + 10% FBS	454	465	455
RPMI 5 mM glucose + 10% dialyzed FBS	461	470	466
